The structures appear in SMILES notation.

The values below come from US6641843B1, “Pharmaceutical compositions” (SmithKline Beecham Corporation, priority 1998, dated 2003).

A short description of this data set: Stability and excipient compatibility of the compound in oral solution. The format is physicochemical. An excerpt:
Solutions of (1S,4R)-cis-4-[2-amino-6-cyclopropylamino)-9H-purin-9-yl]-2-cyclopentene-1-methanol are bitter-tasting and therefore require the addition of sweeteners and taste-maskers. However, formulation of (1S,4R)-cis-4-[2-amino-6-cyclopropylamino)-9H-purin-9-yl]-2-cyclopentene-1-methanol in solution is difficult because materials containing a —COOH group present problems with (1S,4R)-cis-4-[2-amino-6-cyclopropylamino)-9H-purin-9-yl]-2-cyclopentene-1-methanol compatibility.
Advantageously, the pH may be 3.8 to 4.5.

`Nc1nc(NC2CC2)c2ncn([C@H]3C=C[C@@H](CO)C3)c2n1` [abacavir]: for the setting “in solution”, the “adduct formation with sorbitol and/or saccharin” value is listed as “do not lead to the formation of adducts”; the “compatibility with combinations of fructose, acesulfame and saccharin” value is “compatible”; the “compatibility with sorbitol or saccharin or a combination of sorbitol and saccharin” value is “compatible”. Also, under “in solution, glucose replaces the methanol group on the cyclopentyl ring”, the “adduct formation with glucose” value was “forms an adduct”. Under “in solution, sucrose degrades to glucose and fructose”, the “compatibility with sucrose and glucose” value is recorded as “incompatible”. Besides, under “metal chelator, for example citrate”, the “effect of addition of a metal chelator on stability in solution” value is recorded as “improves the stability”. Besides, the “appearance of solutions containing sorbitol” value (pH 4.5-6.5) was “color change and the formation of dark colored particulates”. Moreover, where the note is “pH lowered to about 4.0”, the “effect of lowering the pH on color change and particulates” value was “eliminates the color change and the formation of particulates”.
